“Also recorded” adds a separate entry of the source. Where a SMILES comes first, the peptide text is derived from it. Bridges are numbered along the chain shown (N, C = ends). [ ]: non-standard residue; d: D form. 2Nal = N[C@@H](Cc1ccc2ccccc2c1)C(=O)O; d2Nal = N[C@H](Cc1ccc2ccccc2c1)C(=O)O; Nle = CCCC[C@H](N)C(=O)O
Tests used:
Assay type in all cases: cell-based
frog (Rana pipiens) skin = assay: Frog skin bioassay (skin darkening, photoreflectance); settings: for Frog Skin: agonist/antagonist activity: melanin dispersion vs α-MSH
Procedure: Bioassays were performed on frog (Rana pipiens) skin according to published protocols [see J. Med. Chem. 30:2126 (1987) and Gen. Comp. Endocrinol. 55:104 (1984)]. Briefly, in these assays the darkening of skin due to dispersion of melanin granules within the melanocytes in response to the melanotropin peptides according to the present invention is measured by photoreflectance methods. The agonist potency of each peptide was determined from the dose response curves comparing the skin darkening with that produced by the native hormone, α-MSH. Prolongation of the biological response was measured by continued monitoring of the melanosome dispersion for up to 3 hours following removal of the peptide in the bathing solution through washing of the skins. The antagonistic activity profile was measured by pre-incubating the skins for 1 hour in various concentrations of the antagonist. After pre-incubation, a known concentration of α-MSH was added and its melanotropic activity determined. Dose-response curves generated for α-MSH in this manner were used to determine the pA2 values (representing the -log10 of the average molar concentration of the antagonist that will reduce the response of α-MSH (agonist) from 2X units to X units) [see Br. J. Pharmacol. 2:189 (1947)].

hMC3-R = biological target: T1, hMC3-R (Homo sapiens, UniProt P41968); assay: cAMP-dependent pCRE/β-galactosidase reporter assay in Clonal 293 cells expressing human MC3-R; settings: for hMC3-R: agonist/antagonist activity: cAMP/β-galactosidase
T1 construct: expressed in transfected cells
T1 sequence (P41968 whole entry): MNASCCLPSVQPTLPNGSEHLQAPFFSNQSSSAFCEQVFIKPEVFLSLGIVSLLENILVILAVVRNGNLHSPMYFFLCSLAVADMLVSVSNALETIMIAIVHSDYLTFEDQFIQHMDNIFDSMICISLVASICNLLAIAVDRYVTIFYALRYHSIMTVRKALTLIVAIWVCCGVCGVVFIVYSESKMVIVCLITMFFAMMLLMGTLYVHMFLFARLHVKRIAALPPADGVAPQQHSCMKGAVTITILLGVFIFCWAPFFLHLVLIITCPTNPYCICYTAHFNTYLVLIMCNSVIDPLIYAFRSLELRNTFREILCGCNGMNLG
Procedure: (§1) The peptides according to the present invention were assayed for agonist and antagonist activity using cloned hMC1, mMC1-R, hMC3-R, hMC4-R and mMC5-R transfected into the stable cell line Clonal 293. Transduction was measured by its affect on cAMP production using the following method.
(§2) Clonal 293 cell lines expressing the human MSH receptor, human MC3-R, human MC4-R, and mouse MC5-R were transfected with a pCRE/β-galactosidase construct using a CaPO4 method [see Mol. Cell. Biol. 7:2745 (1987)]. 4 μg of pCRE/β-galactosidase DNA was used for transfection of a 10 cm dish of cells. After 15 to 24 hours post-transfection, cells were split into 96-well plates with 20,000 to 30,000 cells per well, and incubated at 37° C. in a 5% CO2 incubator until 48 hours post-transfection.Cells were then stimulated with different peptides diluted in stimulation medium (Dulbecco's modified Eagle's medium containing 0.1 mg/ml bovine serum albumin and 0.1 mM isobutylmethylxanthine) for 6 hours. Agonist activity was measured by stimulating cells with various concentrations of peptide, and antagonist activity was measured by stimulating MC3 and MC4 receptor cell lines with […]. After stimulation, cells were lysed in 50 μl lysis buffer (250 mM Tris-HCl, pH 8.0, 0.1% Triton X-100), frozen and thawed, and then assayed for b-galactosidase activity.

hMC4-R = biological target: T2, hMC4-R (Homo sapiens, UniProt P32245); assay: cAMP-dependent pCRE/β-galactosidase reporter assay in Clonal 293 cells expressing human MC4-R; settings: for hMC4-R: agonist/antagonist activity: cAMP/β-galactosidase
T2 construct: expressed in transfected cells
T2 sequence (P32245 whole entry): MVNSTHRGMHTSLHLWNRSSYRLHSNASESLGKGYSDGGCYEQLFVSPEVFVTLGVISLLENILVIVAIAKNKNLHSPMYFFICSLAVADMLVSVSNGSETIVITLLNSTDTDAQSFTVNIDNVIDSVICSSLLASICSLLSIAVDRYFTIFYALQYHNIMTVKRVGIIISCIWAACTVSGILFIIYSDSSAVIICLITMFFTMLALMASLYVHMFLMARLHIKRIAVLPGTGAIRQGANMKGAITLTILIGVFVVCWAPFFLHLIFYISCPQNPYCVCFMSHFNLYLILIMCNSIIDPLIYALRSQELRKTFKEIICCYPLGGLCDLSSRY
Procedure: as §1, §2

mMC5-R = biological target: T3, mMC5-R (Mus musculus, UniProt P41149); assay: cAMP-dependent pCRE/β-galactosidase reporter assay in Clonal 293 cells expressing mouse MC5-R; settings: for mMC5-R: agonist/antagonist activity: cAMP/β-galactosidase
T3 construct: expressed in transfected cells
T3 sequence (P41149 whole entry): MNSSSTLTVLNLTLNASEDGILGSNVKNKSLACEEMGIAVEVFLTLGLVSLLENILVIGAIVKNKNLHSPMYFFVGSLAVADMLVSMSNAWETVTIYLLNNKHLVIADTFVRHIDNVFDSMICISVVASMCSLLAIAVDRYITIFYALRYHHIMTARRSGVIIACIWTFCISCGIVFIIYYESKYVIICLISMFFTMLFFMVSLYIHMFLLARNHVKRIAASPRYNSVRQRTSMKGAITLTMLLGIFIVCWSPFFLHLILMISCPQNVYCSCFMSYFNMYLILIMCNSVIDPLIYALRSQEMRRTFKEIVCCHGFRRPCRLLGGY
Procedure: Transduction was measured by its affect on cAMP production using the following method.
as §2, with “4” for “Clonal 293 cell lines expressing the human MSH receptor, human MC3-R, human MC4-R, and mouse MC5-R were transfected with a pCRE/β-galactosidase construct using a CaPO4 method [see Mol. Cell. Biol. 7:2745 (1987)]. 4”

hMC3-R: potency range (hMC3-R)	hMC3-R: agonist/antagonist activity (hMC3-R)	hMC4-R: potency range (hMC4-R)	hMC4-R: agonist/antagonist activity (hMC4-R)	mMC5-R: potency range (mMC5-R)	mMC5-R: agonist/antagonist activity (mMC5-R)	Compound	Frog Skin: reversibility of antagonism (frog (Rana pipiens) skin)	Frog Skin: agonist/antagonist activity (frog (Rana pipiens) skin)
–	–	–	–	–	–	CCCC[C@H](NC(C)=O)C(=O)N[C@H]1CC(=O)NCCCC[C@@H](C(N)=O)NC(=O)[C@H](Cc2ccc3ccccc3c2)NC(=O)[C@H](CCCNC(=N)N)NC(=O)[C@@H](Cc2ccc3ccccc3c2)NC(=O)[C@H](Cc2c[nH]c3ccccc23)NC1=O [Compound 1, Ac-Nle-c[Asp-Trp-D-Nal(2')-Arg-Nal(2')-Lys]-NH2] (Ac-[Nle]DW[d2Nal]R[2Nal]K-NH2; lactam 2-7)	Irreversible	Antagonist
–	–	–	–	–	–	CCCC[C@H](NC(C)=O)C(=O)N[C@H]1CC(=O)NCCCC[C@@H](C(N)=O)NC(=O)[C@H](Cc2ccc3ccccc3c2)NC(=O)[C@H](CCCNC(=N)N)NC(=O)[C@@H](Cc2ccccc2)NC(=O)[C@H](Cc2c[nH]c3ccccc23)NC1=O [Compound 10, Ac-Nle-c[Asp-Trp-D-Phe-Arg-Nal(2')-Lys]-NH2] (Ac-[Nle]DW[dF]R[2Nal]K-NH2; lactam 2-7)	–	potent agonist; also recorded: Full Agonist
–	–	–	–	–	–	CCCC[C@H](NC(C)=O)C(=O)N[C@H]1CC(=O)NCCCC[C@@H](C(N)=O)NC(=O)[C@H](Cc2ccc3ccccc3c2)NC(=O)[C@H](CCCNC(=N)N)NC(=O)[C@@H](Cc2ccc3ccccc3c2)NC(=O)[C@H](Cc2c[nH]cn2)NC1=O [Compound 11, Ac-Nle-c[Asp-His-D-Nal(2')-Arg-Nal(2')-Lys]-NH2]	–	Antagonist -- Partial
–	–	–	–	–	–	CCCC[C@H](NC(C)=O)C(=O)N[C@H]1CC(=O)NCCCC[C@@H](C(N)=O)NC(=O)[C@H](Cc2c[nH]c3ccccc23)NC(=O)[C@H](CCCC)NC(=O)[C@@H](Cc2ccc3ccccc3c2)NC(=O)[C@H](Cc2c[nH]cn2)NC1=O [Compound 13, Ac-Nle-c[Asp-His-D-Nal(2')-Nle-Trp-Lys]-NH2]	–	Agonist
–	–	–	–	–	–	CCCC[C@H](NC(C)=O)C(=O)N[C@H]1CC(=O)NCCCC[C@@H](C(N)=O)NC(=O)[C@H](Cc2c[nH]c3ccccc23)NC(=O)[C@H](CCCC)NC(=O)[C@@H](Cc2ccc3ccccc3c2)NC(=O)[C@H](Cc2c[nH]c3ccccc23)NC1=O [Compound 14, Ac-Nle-c[Asp-Trp-D-Nal(2')-Nle-Trp-Lys]-NH2] (Ac-[Nle]DW[d2Nal][Nle]WK-NH2; lactam 2-7)	–	Antagonist
–	–	–	–	–	–	CCCC[C@H](NC(C)=O)C(=O)N[C@H]1CC(=O)NCCCC[C@@H](C(N)=O)NC(=O)[C@H](Cc2c[nH]c3ccccc23)NC(=O)[C@H](Cc2ccc3ccccc3c2)NC(=O)[C@@H](Cc2ccccc2)NC(=O)[C@H](Cc2c[nH]cn2)NC1=O [Compound 15, Ac-Nle-c[Asp-His-D-Phe-Nal(2')-Trp-Lys]-NH2]	–	Agonism
–	–	–	–	–	–	CCCC[C@H](NC(C)=O)C(=O)N[C@H]1CC(=O)NCCCC[C@@H](C(N)=O)NC(=O)[C@@H](Cc2ccc3ccccc3c2)NC(=O)[C@H](CCCNC(=N)N)NC(=O)[C@@H](Cc2ccc3ccccc3c2)NC(=O)[C@H](Cc2c[nH]cn2)NC1=O [Compound 16, Ac-Nle-c[Asp-His-D-Nal(2')-Arg-D-Nal(2')-Lys]-NH2]	–	Agonism
nM range	Antagonist	nM range	Antagonist	pM range	Antagonist	Ac-Nle-c[Asp-His(1-Me)-D-Nal(2')-Arg-Nal(2')-Lys]-NH2 [Compound 5]	Irreversible	Antagonist
nM range	Antagonist	nM range	Antagonist	pM range	Antagonist	Ac-Nle-c[Asp-His(1-Me)-D-Nal(2')-Arg-Trp-Lys]-NH2 [Compound 2]	Irreversible	Antagonist
nM range	Antagonist	nM range	Antagonist	pM range	Antagonist	Ac-Nle-c[Asp-His(3-Me)-D-Nal(2')-Arg-Nal(2')-Lys]-NH2 [Compound 6]	Irreversible	Antagonist
nM range	Antagonist	nM range	Antagonist	pM range	Antagonist	Ac-Nle-c[Asp-His(3-Me)-D-Nal(2')-Arg-Trp-Lys]-NH2 [Compound 3]	Irreversible	Antagonist

From patent US6054556A, “Melanocortin receptor antagonists and agonists” (The Arizona Board of Regents on Behalf of the University of …, priority 1997, dated 2000)
